{"source": "the kinase profiling compilation of Christmann-Franck et al. (2016)", "experiment_in_all_cases": "KINOMEscan competition binding", "conditions_in_all_cases": "compound 10.0 µM", "key": {"ULK3 (human)": {"target": "ULK3 (human) (UniProt Q6PHR2)"}, "MAP3K5 (human)": {"target": "MAP3K5 (human) (UniProt Q99683)"}, "MKNK2 (human)": {"target": "MKNK2 (human) (UniProt Q9HBH9)"}, "PKMYT1 (human)": {"target": "PKMYT1 (human) (UniProt Q99640)", "sequence (Q99640 whole entry, looked up)": "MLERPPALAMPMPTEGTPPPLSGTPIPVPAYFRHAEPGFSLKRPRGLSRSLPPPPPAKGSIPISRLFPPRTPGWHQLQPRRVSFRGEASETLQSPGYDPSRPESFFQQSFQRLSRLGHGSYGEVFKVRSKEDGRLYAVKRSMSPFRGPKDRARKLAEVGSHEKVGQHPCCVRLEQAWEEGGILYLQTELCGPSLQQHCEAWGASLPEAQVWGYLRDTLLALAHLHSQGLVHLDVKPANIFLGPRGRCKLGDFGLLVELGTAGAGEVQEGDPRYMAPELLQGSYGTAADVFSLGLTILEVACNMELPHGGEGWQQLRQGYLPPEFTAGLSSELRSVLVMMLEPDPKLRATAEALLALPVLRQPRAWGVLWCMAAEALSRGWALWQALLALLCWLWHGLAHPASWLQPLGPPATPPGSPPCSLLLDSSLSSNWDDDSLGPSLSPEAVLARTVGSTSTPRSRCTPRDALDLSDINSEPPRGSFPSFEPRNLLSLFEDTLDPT"}, "PLK3 (human)": {"target": "PLK3 (human) (UniProt Q9H4B4)"}, "MYLK2 (human)": {"target": "MYLK2 (human) (UniProt Q9H1R3)"}, "CAMK1G (human)": {"target": "CAMK1G (human) (UniProt Q96NX5)"}, "LATS2 (human)": {"target": "LATS2 (human) (UniProt Q9NRM7)"}, "MYLK (human)": {"target": "MYLK (human) (UniProt Q15746)"}, "ROS1 (human)": {"target": "ROS1 (human) (UniProt P08922)", "sequence (P08922 whole entry, looked up)": "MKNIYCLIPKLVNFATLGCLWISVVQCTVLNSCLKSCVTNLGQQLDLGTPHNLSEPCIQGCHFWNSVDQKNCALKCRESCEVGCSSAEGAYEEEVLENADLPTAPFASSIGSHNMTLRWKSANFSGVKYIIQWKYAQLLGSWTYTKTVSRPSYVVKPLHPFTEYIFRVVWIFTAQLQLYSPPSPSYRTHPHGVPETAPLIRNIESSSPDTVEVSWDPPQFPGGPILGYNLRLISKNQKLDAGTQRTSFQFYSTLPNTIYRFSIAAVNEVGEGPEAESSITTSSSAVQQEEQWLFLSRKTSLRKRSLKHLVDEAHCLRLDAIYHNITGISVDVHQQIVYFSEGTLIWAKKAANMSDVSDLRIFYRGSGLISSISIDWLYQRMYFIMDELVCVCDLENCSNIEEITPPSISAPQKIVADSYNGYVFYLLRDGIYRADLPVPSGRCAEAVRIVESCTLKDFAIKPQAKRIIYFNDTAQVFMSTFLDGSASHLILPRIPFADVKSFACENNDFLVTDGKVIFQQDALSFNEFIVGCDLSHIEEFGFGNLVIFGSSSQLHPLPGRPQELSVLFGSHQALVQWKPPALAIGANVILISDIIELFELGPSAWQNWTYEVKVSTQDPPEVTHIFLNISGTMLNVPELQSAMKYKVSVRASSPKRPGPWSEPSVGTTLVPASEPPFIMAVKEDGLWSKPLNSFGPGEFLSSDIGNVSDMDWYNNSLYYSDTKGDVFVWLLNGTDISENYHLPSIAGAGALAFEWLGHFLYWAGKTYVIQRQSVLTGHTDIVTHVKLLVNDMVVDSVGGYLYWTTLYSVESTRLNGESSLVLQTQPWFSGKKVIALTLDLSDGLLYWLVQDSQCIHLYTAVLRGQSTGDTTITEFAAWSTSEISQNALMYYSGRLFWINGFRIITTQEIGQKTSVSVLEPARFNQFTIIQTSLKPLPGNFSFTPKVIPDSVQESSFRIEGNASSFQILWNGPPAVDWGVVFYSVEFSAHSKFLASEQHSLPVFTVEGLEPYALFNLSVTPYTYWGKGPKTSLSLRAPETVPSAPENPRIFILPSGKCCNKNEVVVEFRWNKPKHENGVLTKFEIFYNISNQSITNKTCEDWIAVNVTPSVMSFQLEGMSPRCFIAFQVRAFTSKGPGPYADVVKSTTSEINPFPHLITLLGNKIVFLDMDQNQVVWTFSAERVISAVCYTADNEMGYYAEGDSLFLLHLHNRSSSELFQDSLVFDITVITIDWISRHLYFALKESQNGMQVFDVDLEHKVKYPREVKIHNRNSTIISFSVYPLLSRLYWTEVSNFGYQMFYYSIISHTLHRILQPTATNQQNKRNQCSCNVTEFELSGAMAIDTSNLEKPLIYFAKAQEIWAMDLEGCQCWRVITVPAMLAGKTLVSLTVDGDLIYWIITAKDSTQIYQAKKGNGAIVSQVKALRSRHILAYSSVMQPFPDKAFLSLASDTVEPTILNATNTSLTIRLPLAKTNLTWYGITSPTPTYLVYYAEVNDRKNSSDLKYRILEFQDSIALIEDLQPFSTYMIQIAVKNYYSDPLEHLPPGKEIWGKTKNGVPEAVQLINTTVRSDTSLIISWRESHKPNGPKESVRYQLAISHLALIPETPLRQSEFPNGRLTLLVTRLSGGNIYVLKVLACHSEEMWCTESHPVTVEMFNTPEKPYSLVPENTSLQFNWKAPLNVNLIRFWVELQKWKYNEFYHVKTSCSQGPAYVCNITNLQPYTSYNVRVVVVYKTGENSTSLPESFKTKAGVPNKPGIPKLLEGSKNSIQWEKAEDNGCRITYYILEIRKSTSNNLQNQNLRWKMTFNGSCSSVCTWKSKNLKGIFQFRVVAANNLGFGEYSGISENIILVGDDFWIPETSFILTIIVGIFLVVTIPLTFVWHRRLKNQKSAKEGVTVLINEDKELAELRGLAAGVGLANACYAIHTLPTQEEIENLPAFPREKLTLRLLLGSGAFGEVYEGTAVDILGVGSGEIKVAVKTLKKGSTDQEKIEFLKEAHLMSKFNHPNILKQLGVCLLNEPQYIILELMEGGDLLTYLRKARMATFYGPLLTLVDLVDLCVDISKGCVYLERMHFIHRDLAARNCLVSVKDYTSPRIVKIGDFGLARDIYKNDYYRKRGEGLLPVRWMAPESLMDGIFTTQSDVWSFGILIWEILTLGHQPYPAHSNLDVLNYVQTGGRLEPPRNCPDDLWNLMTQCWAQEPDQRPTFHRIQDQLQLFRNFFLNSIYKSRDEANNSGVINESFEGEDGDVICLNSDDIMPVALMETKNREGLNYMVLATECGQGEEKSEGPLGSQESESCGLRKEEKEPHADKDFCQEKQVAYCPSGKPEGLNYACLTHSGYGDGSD"}, "MAPK7 (human)": {"target": "MAPK7 (human) (UniProt Q13164)"}, "CPK1 (P.falciparum)": {"tested_on": "CPK1 (P.falciparum)"}, "STK32B (human)": {"target": "STK32B (human) (UniProt Q9NY57)", "sequence (Q9NY57 whole entry, looked up)": "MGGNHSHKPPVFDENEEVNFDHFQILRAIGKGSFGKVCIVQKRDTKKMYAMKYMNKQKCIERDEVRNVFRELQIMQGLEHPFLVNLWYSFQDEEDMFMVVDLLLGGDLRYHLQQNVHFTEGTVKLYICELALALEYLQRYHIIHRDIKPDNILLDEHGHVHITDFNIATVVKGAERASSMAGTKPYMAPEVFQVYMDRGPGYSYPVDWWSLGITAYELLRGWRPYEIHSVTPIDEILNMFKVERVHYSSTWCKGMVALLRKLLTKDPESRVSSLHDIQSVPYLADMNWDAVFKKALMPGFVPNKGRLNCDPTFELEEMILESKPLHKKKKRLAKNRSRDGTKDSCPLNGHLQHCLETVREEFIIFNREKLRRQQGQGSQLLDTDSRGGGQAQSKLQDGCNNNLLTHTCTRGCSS"}, "PRKCI (human)": {"target": "PRKCI (human) (UniProt P41743)"}, "PLK1 (human)": {"target": "PLK1 (human) (UniProt P53350)", "sequence (P53350 whole entry, looked up)": "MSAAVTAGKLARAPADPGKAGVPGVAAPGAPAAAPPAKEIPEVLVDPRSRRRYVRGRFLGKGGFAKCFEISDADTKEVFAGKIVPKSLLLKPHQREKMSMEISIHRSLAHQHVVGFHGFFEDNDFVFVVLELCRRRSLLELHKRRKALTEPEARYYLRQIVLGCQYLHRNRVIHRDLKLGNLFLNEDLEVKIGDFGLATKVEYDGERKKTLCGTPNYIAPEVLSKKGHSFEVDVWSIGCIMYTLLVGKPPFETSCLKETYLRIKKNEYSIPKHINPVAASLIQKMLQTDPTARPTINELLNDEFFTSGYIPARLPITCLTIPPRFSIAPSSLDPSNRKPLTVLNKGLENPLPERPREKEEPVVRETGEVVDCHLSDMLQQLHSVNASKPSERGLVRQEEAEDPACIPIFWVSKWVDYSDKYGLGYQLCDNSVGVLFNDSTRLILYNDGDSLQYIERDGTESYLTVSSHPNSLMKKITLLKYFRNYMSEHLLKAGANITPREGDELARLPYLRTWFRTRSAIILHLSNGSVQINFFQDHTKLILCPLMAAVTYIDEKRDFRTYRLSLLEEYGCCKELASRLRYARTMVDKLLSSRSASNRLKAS"}, "EPHB3 (human)": {"target": "EPHB3 (human) (UniProt P54753)"}, "RPS6KA5 KD2 (human)": {"target": "RPS6KA5 KD2 (human) (UniProt O75582)"}, "RET (human)": {"target": "RET (human) (UniProt P07949)"}, "GSK3A (human)": {"target": "GSK3A (human) (UniProt P49840)"}, "CIT (human)": {"target": "CIT (human) (UniProt O14578)"}, "SNRK (human)": {"target": "SNRK (human) (UniProt Q9NRH2)"}, "PDGFRA (human)": {"target": "PDGFRA (human) (UniProt P16234)"}, "[1]": {"tested_on": "KIT (human), P10721 [D816H]"}, "IRAK1 (human)": {"target": "IRAK1 (human) (UniProt P51617)", "sequence (P51617 whole entry, looked up)": "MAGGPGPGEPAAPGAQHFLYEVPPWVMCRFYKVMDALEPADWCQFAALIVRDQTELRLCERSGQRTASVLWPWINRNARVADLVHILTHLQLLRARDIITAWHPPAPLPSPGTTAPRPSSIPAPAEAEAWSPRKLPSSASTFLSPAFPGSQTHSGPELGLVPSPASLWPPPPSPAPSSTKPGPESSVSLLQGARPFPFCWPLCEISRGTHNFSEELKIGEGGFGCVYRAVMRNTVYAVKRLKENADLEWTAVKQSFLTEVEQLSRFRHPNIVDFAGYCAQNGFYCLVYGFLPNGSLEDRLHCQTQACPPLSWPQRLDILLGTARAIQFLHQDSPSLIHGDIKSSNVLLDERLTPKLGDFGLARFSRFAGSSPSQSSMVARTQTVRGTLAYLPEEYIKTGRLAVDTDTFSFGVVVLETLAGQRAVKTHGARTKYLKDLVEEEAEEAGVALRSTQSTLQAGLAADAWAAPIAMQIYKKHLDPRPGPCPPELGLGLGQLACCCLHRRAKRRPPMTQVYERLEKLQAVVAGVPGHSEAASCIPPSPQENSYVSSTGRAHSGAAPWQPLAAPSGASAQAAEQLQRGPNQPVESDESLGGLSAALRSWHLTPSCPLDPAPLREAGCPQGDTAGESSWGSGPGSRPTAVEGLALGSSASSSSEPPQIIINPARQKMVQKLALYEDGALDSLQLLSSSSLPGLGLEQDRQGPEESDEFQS"}, "CAMK2G (human)": {"target": "CAMK2G (human) (UniProt Q13555)"}, "LIMK1 (human)": {"target": "LIMK1 (human) (UniProt P53667)"}, "CHEK1 (human)": {"target": "CHEK1 (human) (UniProt O14757)"}, "[2]": {"tested_on": "MET (human), P08581 [M1250T]"}, "HCK (human)": {"target": "HCK (human) (UniProt P08631)"}, "MAP3K6 (human)": {"target": "MAP3K6 (human) (UniProt O95382)"}, "STK32A (human)": {"target": "STK32A (human) (UniProt Q8WU08)"}, "SGK3 (human)": {"target": "SGK3 (human) (UniProt Q96BR1)"}, "MET (human)": {"target": "MET (human) (UniProt P08581)"}, "HIPK4 (human)": {"target": "HIPK4 (human) (UniProt Q8NE63)"}, "CDK3 (human)": {"target": "CDK3 (human) (UniProt Q00526)"}, "CSNK1D (human)": {"target": "CSNK1D (human) (UniProt P48730)", "sequence (P48730 whole entry, looked up)": "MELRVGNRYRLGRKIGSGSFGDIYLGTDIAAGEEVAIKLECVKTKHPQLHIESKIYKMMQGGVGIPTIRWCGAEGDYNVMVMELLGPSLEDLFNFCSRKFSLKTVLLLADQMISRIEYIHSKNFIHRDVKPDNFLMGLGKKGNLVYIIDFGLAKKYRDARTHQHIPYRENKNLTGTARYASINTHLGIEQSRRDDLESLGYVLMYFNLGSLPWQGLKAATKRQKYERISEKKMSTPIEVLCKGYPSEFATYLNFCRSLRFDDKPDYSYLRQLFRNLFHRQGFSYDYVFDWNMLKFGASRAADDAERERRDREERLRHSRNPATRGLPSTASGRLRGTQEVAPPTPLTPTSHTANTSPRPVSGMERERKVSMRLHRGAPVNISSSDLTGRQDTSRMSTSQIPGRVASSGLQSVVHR"}, "PRKG2 (human)": {"target": "PRKG2 (human) (UniProt Q13237)"}, "CDKL1 (human)": {"target": "CDKL1 (human) (UniProt Q00532)"}, "PKN2 (human)": {"target": "PKN2 (human) (UniProt Q16513)"}, "LYN (human)": {"target": "LYN (human) (UniProt P07948)"}, "FLT4 (human)": {"target": "FLT4 (human) (UniProt P35916)"}}, "data": [{"smiles": "CNC(=O)Nc1ccc(-c2nc(N3CC4CCC(C3)O4)c3cnn(C4CCC5(CC4)OCCO5)c3n2)cc1", "values": [{"measurement": "kinase still bound, per cent of control", "setting": "ULK3 (human)", "value": 92, "unit": "%"}, {"measurement": "kinase still bound, per cent of control", "setting": "MAP3K5 (human)", "value": 85, "unit": "%"}, {"measurement": "kinase still bound, per cent of control", "setting": "MKNK2 (human)", "value": 87, "unit": "%"}, {"measurement": "kinase still bound, per cent of control", "setting": "PKMYT1 (human)", "value": 75, "unit": "%"}, {"measurement": "kinase still bound, per cent of control", "setting": "PLK3 (human)", "value": 100, "unit": "%"}, {"measurement": "kinase still bound, per cent of control", "setting": "MYLK2 (human)", "value": 100, "unit": "%"}, {"measurement": "kinase still bound, per cent of control", "setting": "CAMK1G (human)", "value": 100, "unit": "%"}, {"measurement": "kinase still bound, per cent of control", "setting": "LATS2 (human)", "value": 76, "unit": "%"}, {"measurement": "kinase still bound, per cent of control", "setting": "MYLK (human)", "value": 100, "unit": "%"}, {"measurement": "kinase still bound, per cent of control", "setting": "ROS1 (human)", "value": 81, "unit": "%"}, {"measurement": "kinase still bound, per cent of control", "setting": "MAPK7 (human)", "value": 100, "unit": "%"}, {"measurement": "kinase still bound, per cent of control", "setting": "CPK1 (P.falciparum)", "value": 86, "unit": "%"}, {"measurement": "kinase still bound, per cent of control", "setting": "STK32B (human)", "value": 86, "unit": "%"}, {"measurement": "kinase still bound, per cent of control", "setting": "PRKCI (human)", "value": 67, "unit": "%"}, {"measurement": "kinase still bound, per cent of control", "setting": "PLK1 (human)", "value": 77, "unit": "%"}, {"measurement": "kinase still bound, per cent of control", "setting": "EPHB3 (human)", "value": 92, "unit": "%"}, {"measurement": "kinase still bound, per cent of control", "setting": "RPS6KA5 KD2 (human)", "value": 90, "unit": "%"}, {"measurement": "kinase still bound, per cent of control", "setting": "RET (human)", "value": 91, "unit": "%"}, {"measurement": "kinase still bound, per cent of control", "setting": "GSK3A (human)", "value": 82, "unit": "%"}, {"measurement": "kinase still bound, per cent of control", "setting": "CIT (human)", "value": 100, "unit": "%"}, {"measurement": "kinase still bound, per cent of control", "setting": "SNRK (human)", "value": 100, "unit": "%"}, {"measurement": "kinase still bound, per cent of control", "setting": "PDGFRA (human)", "value": 80, "unit": "%"}, {"measurement": "kinase still bound, per cent of control", "setting": "[1]", "value": 86, "unit": "%"}, {"measurement": "kinase still bound, per cent of control", "setting": "IRAK1 (human)", "value": 100, "unit": "%"}, {"measurement": "kinase still bound, per cent of control", "setting": "CAMK2G (human)", "value": 100, "unit": "%"}, {"measurement": "kinase still bound, per cent of control", "setting": "LIMK1 (human)", "value": 95, "unit": "%"}, {"measurement": "kinase still bound, per cent of control", "setting": "CHEK1 (human)", "value": 100, "unit": "%"}, {"measurement": "kinase still bound, per cent of control", "setting": "[2]", "value": 87, "unit": "%"}, {"measurement": "kinase still bound, per cent of control", "setting": "HCK (human)", "value": 100, "unit": "%"}, {"measurement": "kinase still bound, per cent of control", "setting": "MAP3K6 (human)", "value": 80, "unit": "%"}, {"measurement": "kinase still bound, per cent of control", "setting": "STK32A (human)", "value": 99, "unit": "%"}, {"measurement": "kinase still bound, per cent of control", "setting": "SGK3 (human)", "value": 100, "unit": "%"}, {"measurement": "kinase still bound, per cent of control", "setting": "MET (human)", "value": 93, "unit": "%"}, {"measurement": "kinase still bound, per cent of control", "setting": "HIPK4 (human)", "value": 100, "unit": "%"}, {"measurement": "kinase still bound, per cent of control", "setting": "CDK3 (human)", "value": 99, "unit": "%"}, {"measurement": "kinase still bound, per cent of control", "setting": "CSNK1D (human)", "value": 92, "unit": "%"}, {"measurement": "kinase still bound, per cent of control", "setting": "PRKG2 (human)", "value": 88, "unit": "%"}, {"measurement": "kinase still bound, per cent of control", "setting": "CDKL1 (human)", "value": 84, "unit": "%"}, {"measurement": "kinase still bound, per cent of control", "setting": "PKN2 (human)", "value": 83, "unit": "%"}, {"measurement": "kinase still bound, per cent of control", "setting": "LYN (human)", "value": 85, "unit": "%"}, {"measurement": "kinase still bound, per cent of control", "setting": "FLT4 (human)", "value": 88, "unit": "%"}]}, {"smiles": "N#C/C(=C1/Nc2ccccc2S1)c1ccnc(NCCc2cccnc2)n1", "values": [{"measurement": "kinase still bound, per cent of control", "setting": "ULK3 (human)", "value": 12, "unit": "%"}, {"measurement": "kinase still bound, per cent of control", "setting": "MAP3K5 (human)", "value": 100, "unit": "%"}, {"measurement": "kinase still bound, per cent of control", "setting": "MKNK2 (human)", "value": 0.5, "unit": "%"}, {"measurement": "kinase still bound, per cent of control", "setting": "PKMYT1 (human)", "value": 95, "unit": "%"}, {"measurement": "kinase still bound, per cent of control", "setting": "PLK3 (human)", "value": 12, "unit": "%"}, {"measurement": "kinase still bound, per cent of control", "setting": "MYLK2 (human)", "value": 100, "unit": "%"}, {"measurement": "kinase still bound, per cent of control", "setting": "CAMK1G (human)", "value": 61, "unit": "%"}, {"measurement": "kinase still bound, per cent of control", "setting": "LATS2 (human)", "value": 92, "unit": "%"}, {"measurement": "kinase still bound, per cent of control", "setting": "MYLK (human)", "value": 66, "unit": "%"}, {"measurement": "kinase still bound, per cent of control", "setting": "ROS1 (human)", "value": 100, "unit": "%"}, {"measurement": "kinase still bound, per cent of control", "setting": "MAPK7 (human)", "value": 100, "unit": "%"}, {"measurement": "kinase still bound, per cent of control", "setting": "CPK1 (P.falciparum)", "value": 4.2, "unit": "%"}, {"measurement": "kinase still bound, per cent of control", "setting": "STK32B (human)", "value": 100, "unit": "%"}, {"measurement": "kinase still bound, per cent of control", "setting": "PRKCI (human)", "value": 80, "unit": "%"}, {"measurement": "kinase still bound, per cent of control", "setting": "PLK1 (human)", "value": 72, "unit": "%"}, {"measurement": "kinase still bound, per cent of control", "setting": "EPHB3 (human)", "value": 100, "unit": "%"}, {"measurement": "kinase still bound, per cent of control", "setting": "RPS6KA5 KD2 (human)", "value": 72, "unit": "%"}, {"measurement": "kinase still bound, per cent of control", "setting": "RET (human)", "value": 100, "unit": "%"}, {"measurement": "kinase still bound, per cent of control", "setting": "GSK3A (human)", "value": 0.6, "unit": "%"}, {"measurement": "kinase still bound, per cent of control", "setting": "CIT (human)", "value": 59, "unit": "%"}, {"measurement": "kinase still bound, per cent of control", "setting": "SNRK (human)", "value": 2.7, "unit": "%"}, {"measurement": "kinase still bound, per cent of control", "setting": "PDGFRA (human)", "value": 100, "unit": "%"}, {"measurement": "kinase still bound, per cent of control", "setting": "[1]", "value": 72, "unit": "%"}, {"measurement": "kinase still bound, per cent of control", "setting": "IRAK1 (human)", "value": 6.2, "unit": "%"}, {"measurement": "kinase still bound, per cent of control", "setting": "CAMK2G (human)", "value": 78, "unit": "%"}, {"measurement": "kinase still bound, per cent of control", "setting": "LIMK1 (human)", "value": 78, "unit": "%"}, {"measurement": "kinase still bound, per cent of control", "setting": "CHEK1 (human)", "value": 100, "unit": "%"}, {"measurement": "kinase still bound, per cent of control", "setting": "[2]", "value": 100, "unit": "%"}, {"measurement": "kinase still bound, per cent of control", "setting": "HCK (human)", "value": 100, "unit": "%"}, {"measurement": "kinase still bound, per cent of control", "setting": "MAP3K6 (human)", "value": 100, "unit": "%"}, {"measurement": "kinase still bound, per cent of control", "setting": "STK32A (human)", "value": 100, "unit": "%"}, {"measurement": "kinase still bound, per cent of control", "setting": "SGK3 (human)", "value": 100, "unit": "%"}, {"measurement": "kinase still bound, per cent of control", "setting": "MET (human)", "value": 98, "unit": "%"}, {"measurement": "kinase still bound, per cent of control", "setting": "HIPK4 (human)", "value": 42, "unit": "%"}, {"measurement": "kinase still bound, per cent of control", "setting": "CDK3 (human)", "value": 100, "unit": "%"}, {"measurement": "kinase still bound, per cent of control", "setting": "CSNK1D (human)", "value": 42, "unit": "%"}, {"measurement": "kinase still bound, per cent of control", "setting": "PRKG2 (human)", "value": 81, "unit": "%"}, {"measurement": "kinase still bound, per cent of control", "setting": "CDKL1 (human)", "value": 45, "unit": "%"}, {"measurement": "kinase still bound, per cent of control", "setting": "PKN2 (human)", "value": 100, "unit": "%"}, {"measurement": "kinase still bound, per cent of control", "setting": "LYN (human)", "value": 100, "unit": "%"}, {"measurement": "kinase still bound, per cent of control", "setting": "FLT4 (human)", "value": 100, "unit": "%"}]}]}
